Measured values as given in PubChem BioAssay (NCI).
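Results reflect a 48-hour exposure of cells in 96-well plates to compound at five concentrations. GI50 = concentration required for 50% inhibition of growth. TGI: total growth inhibition.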

Key:
Experiment in all cases: NCI-60 cell line screen, 48 h
SN12C renal = tested on: SN12C renal
LXFL 529 NSCLC = tested on: LXFL 529 NSCLC
OVCAR-3 ovarian = tested on: OVCAR-3 ovarian
HOP-62 NSCLC = tested on: HOP-62 NSCLC
SF-295 CNS = tested on: SF-295 CNS
OVCAR-4 ovarian = tested on: OVCAR-4 ovarian
SK-OV-3 ovarian = tested on: SK-OV-3 ovarian
M19-MEL melanoma = tested on: M19-MEL melanoma
OVCAR-8 ovarian = tested on: OVCAR-8 ovarian
SR leukemia = tested on: SR leukemia

Structure (SMILES) | TGI (SN12C renal) [µM] | TGI (LXFL 529 NSCLC) [µM] | TGI (OVCAR-3 ovarian) [µM] | TGI (HOP-62 NSCLC) [µM] | TGI (SF-295 CNS) [µM] | TGI (OVCAR-4 ovarian) [µM] | TGI (SK-OV-3 ovarian) [µM] | TGI (M19-MEL melanoma) [µM] | TGI (OVCAR-8 ovarian) [µM] | TGI (SR leukemia) [µM] | GI50 (SN12C renal) [µM] | GI50 (OVCAR-3 ovarian) [µM] | GI50 (HOP-62 NSCLC) [µM] | GI50 (SF-295 CNS) [µM] | GI50 (OVCAR-4 ovarian) [µM] | GI50 (SR leukemia) [µM] | GI50 (SK-OV-3 ovarian) [µM] | GI50 (OVCAR-8 ovarian) [µM]
Cc1ccccc1NC(=O)C(=O)CC(=O)C1CCOC1=O (centres undefined) | > 100 | > 100 | > 100 | > 100 | > 100 | > 100 | > 100 | > 100 | > 100 |  |  |  |  |  |  |  |  | 
CCOC(=O)C1=C(C)N(NC(=O)OC)C2(N)N(NC(=O)OC)C(C)=C(C(=O)OCC)C12C#N (centres undefined) | > 100 | > 100 | > 100 | > 100 | > 100 | > 100 | > 100 | > 100 | > 100 | > 100 |  |  |  |  |  |  |  | 
Cc1cc(Cl)cc2c1NC(=O)C2(O)CC(=O)c1ccc(F)cc1 (centres undefined) | > 100 |  | 96.5 | > 100 | > 100 | 98.1 | > 100 | 17.9 | > 100 |  |  |  |  |  |  |  |  | 
Cc1cccc(Cl)c1NC(=O)c1cccc([N+](=O)[O-])c1O | > 100 | > 100 | 76.4 | 54.4 | > 100 | > 100 | > 100 |  | > 100 |  |  |  |  |  |  |  |  | 
OCCSCC/C(=N\N=C(/CCSCCO)c1ccccc1)c1ccccc1 | > 100 | > 100 | > 100 | > 100 | > 100 | > 100 | > 100 | > 100 | > 100 |  |  |  |  |  |  |  |  | 
O=C1c2ccccc2C(=O)c2sc(Nc3ccc(Cl)cc3)nc21 | 3.56 | 3.1 | 2.74 | 9.26 | 15.8 | 4.12 | 30.4 | 1.56 | 4.49 | 5.84 |  |  |  |  |  |  |  | 
CCOC(=O)N1CCc2cc(OC)c(OC)cc2/C1=C/c1ccc(OC)c(OC)c1 | > 100 | > 100 | > 100 | > 100 | > 100 |  | > 100 | > 100 |  | > 100 |  |  |  |  |  |  |  | 
Cc1[nH]c(=O)nc(N/N=C/c2ccc(Cl)cc2)c1C(=O)Nc1ccc(Cl)cc1 | > 100 | > 73.3 | 35.6 | 26 | 43.4 | 22.4 | 57.9 | > 100 | 37.5 | > 100 |  |  |  |  |  |  |  | 
O=C1[C@@H]2C(c3ccncc3)=NO[C@@H]2C(=O)N1c1ccc(Cc2ccc(N3C(=O)[C@H]4C(c5ccncc5)=NO[C@H]4C3=O)cc2)cc1 | > 100 | > 100 | > 100 | > 100 | > 100 | > 100 | > 100 | > 100 | > 100 |  |  |  |  |  |  |  |  | 
C/C(CC(=O)Nc1ccccc1)=N\NC(N)=S |  | > 100 | > 100 | > 100 | > 100 |  | > 100 | > 100 | > 100 |  |  |  |  |  |  |  |  | 
C=C1C(=O)O[C@H]2[C@H]1CC/C(COC(=O)C(=O)c1c[nH]c3ccc(Cl)cc13)=C\CC[C@@]1(C)O[C@@H]21 | 4.17 |  | 2.01 | 3.66 | 18.6 | 7.03 | 24.1 |  | 6.82 | 12.2 | 1.84 | 0.52 | 1.63 | 5.77 | 2.34 | 0.342 | 11.6 | 2.32
